Values quoted from earlier work as cited in patent US20250224401A1, “METHODS OF DIAGNOSING B CELL MALIGNANCIES, DETECTING B CELL MALIGNANCY RELAPSE, AND TREATING THEREOF” (Rutgers, The State University of New Jersey, priority 2022, published 2025).

Test system: cultured human malignant B cells
Conditions: in vitro

For `C=CC(=O)N1CCC[C@@H](n2nc(-c3ccc(Oc4ccccc4)cc3)c3c(N)ncnc32)C1` [ibrutinib], which “cytotoxic effects on cultured human malignant B cells” value is on record?
The value was “moderate or minimal cytotoxic effects”.
